In patent publication US9921212B2, “Preventive and therapeutic drug for cartilaginous hyperplasia and method of screening for the same” (KYOTO UNIVERSITY, priority 2014, dated 2018):

Legend:
human SOX9 promoter = human SOX9 promoter luciferase reporter activity in chondroprogenitor cells; type: cell-based; conditions: mutant-type chondroprogenitor cells, 10 μM, 24 hours
Description: In order to examine SOX9 regulation, human SOX9 promoter activity in chondroprogenitor cells was confirmed. A reporter construct prepared by inserting a −927- to +84-bp human SOX9 promoter region (transcription start site: 0) into a pGL3-luciferase reporter plasmid (Promega) in accordance with Ushita M et al., Osteoarthritis and cartilage/OARS, Osteoarthritis Research Society. 2009; 17(8): 1065-75 was used for confirmation (FIG. 7A and Table 2). Chondroprogenitor cells obtained by the above method were seeded on a 6-well plate (50000 cells/well). A FuGENE 6 transfection reagent was used for transfection (2 μg DNA/well). Twenty four hours later, luciferase activity was determined using a Dual-Luciferase Reporter Assay Kit (Promega) and a Centro XS^3 LB 960 Microplate Luminometer (BERTHOLD) for calculation of promoter activity. […] Next, in order to identify mutation of a site responsible for NLRP3-dependent responsiveness, reporter constructs each having a mutation in an NFAT-binding sequence, an AP-1-binding sequence, an NF-κB-binding sequence, an Sp1-binding sequence, or an CREB/ATF-binding sequence were prepared as listed in Table 3. These mutated reporter constructs were transfected into chondroprogenitor cells in the above manner to confirm promoter activity. […]

[1] = tested on: mutant-type chondroprogenitor cells; assay: 3D pellet culture, size of cartilaginous pellets (Alcian Blue stained area), mutant-type; type: cell-based, human; conditions: added during 3D pellet culture
Procedure: Chondroprogenitor cells obtained by the above method were cultured in a cartilage induction medium containing 5 ng/mL FGF2 and 10 ng/ml TGFβ3 for 3 days. Then, 2.5×10^5 cells were centrifuged to form a pellet, followed by culture in a cartilage induction medium containing 0.5 ml of 40 ng/ml PDGF-BB and 1% FCS, as in the case of 2D micromass culture. Six days later, 10 ng/ml TGFβ3 was further added for culture. Ten days later, PDGF-BB was substituted with 50 ng/ml BMP4 (WAKO). 3D pellet culture was mained at 37° C. in 5% CO2 for 28 days.
In order to examine the chondrocytes induced via 2D micromass culture and those induced via 3D pellet culture, the cells obtained by 2D micromass culture were fixed with 4% paraformaldehyde (PFA) for 1 hour and stained with 1% Alcian Blue (pH 1.0) (Sigma-Aldrich), and the cells obtained by 3D pellet culture were fixed with 4% paraformaldehyde (PFA) for 1 hour and stained with 0.1% Alcian Blue (pH 1.0) (Sigma-Aldrich). Further, immunostaining was carried out using an anti-COL2 antibody (Thermo Scientific). Alcian blue is a reagent for detecting an extracellular matrix secreted by chondrocytes, and COL2 is a gene that is expressed in a chondrocyte-specific manner.
Further, the influence of adenylate cyclase was examined with the addition of forskolin and SQ22536 during 3D pellet culture. […]

SOX9 [2] = assay: 2D micromass culture with inhibitor added, SOX9 expression; type: cell-based, human; conditions: 10 μM or 1 μg/mL
Procedure: (§1) Chondroprogenitor cells (1.5×10^5 cells) obtained via the above method were suspended in a cartilage induction medium containing 40 ng/ml PDGF-BB and 1% FCS and the suspension was spotted in the form of […] drops on a fibronectin-coated 24-well plate (BD), followed by culture. In this case, the medium was replaced every three days. Six days later, 10 ng/ml TGFβ3 was further added for culture. Ten days after the start of 2D micromass culture, PDGF-BB was substituted with 50 ng/ml BMP4 (WAKO). 2D micromass culture was performed at 37° C. in 5% CO2 for 14 days.
(§2) mRNA was isolated from each cell using an RNeasy Mini Kit (Qiagen). cDNA was synthesized via reverse transcription using 1 μg of the obtained total RNA as a template and a Superscript III reverse transcriptase (Invitrogen). A standard curve for quantitative real-time PCR was created to conduct analysis. Real-time PCR analysis was conducted using a Power SYBR Green qPCR mastermix (Invitrogen) and a StepOne real-time PCR system (ABI) for quantitative determination.
Further, 2D micromass culture was performed with the addition of 10 μM or 1 μg/mL Ac-YVAD-CHO. As a result, there was no influence in cartilaginous hyperplasia (FIGS. 6A, 6B, 6D, 6E, 6F, and 6H) or SOX9 expression (FIGS. 6C and 6G).

[3] = tested on: mutant-type iPSC-derived chondrocytes; assay: 2D micromass culture with inhibitor added, cartilaginous hyperplasia (pellet size, GAG); type: cell-based, human; conditions: 10 μM or 1 μg/mL
Procedure: as §1
Subsequently, quantitative analysis of the amount of DNA and the glycosaminoglycan production amount after chondrocyte differentiation was conducted. The amount of DNA was determined using a Pico Green dsDNA Quantitation kit (Invitrogen) in the manner described in Nasu A, et al., PloS one. 8(1): e53771 (2013). The extracellular matrix production amount was determined using Blyscan glycosaminoglycan Assay (Biocolor) in accordance with the manufacturer's protocol. As a result, no difference in the amount of DNA in chondrocytes was found between wild-type iPSC-derived cartilage tissue and mutant-type iPSC-derived cartilage tissue in both cases of 2D micromass culture and 3D pellet culture (FIGS. 3B and 3C). […]

SOX9 [4] = assay: mRNA expression of SOX9 in chondroprogenitor cells with forskolin and SQ22536 added; type: cell-based, human; conditions: wild-type and mutant-type chondroprogenitor cells
Procedure: as §2
In order to examine whether or not the […] signal transduction pathway is involved in cartilaginous hyperplasia, analysis was conducted using forskolin, which is an adenylate cyclase activator, and SQ22536, which is an adenylate cyclase inhibitor. This test was conducted by introducing a human SOX9 promoter into chondroprogenitor cells, immediately treating the cells with 10 μM forskolin (CALBIOCHEM) or 10 μM SQ22536 (Sigma-Aldrich), and incubating cells for 24 hours so as to determine luciferase activity. As a result, the SOX9 promoter activity in mutant-type chondroprogenitor cells treated with forskolin increased to a level 2.3 times that of mutant-type chondroprogenitor cells (control) treated with a base (DMSO) (FIG. 7D). Meanwhile, the SOX9 promoter activity in mutant-type chondroprogenitor cells treated with SQ22536 decreased to a level half that in the control (FIG. 7D).

## C=C[C@@]1(C)CC(=O)[C@]2(O)[C@@]3(C)[C@@H](O)CCC(C)(C)[C@@H]3[C@H](O)[C@H](OC(C)=O)[C@@]2(C)O1 [forskolin]
Human SOX9 promoter
  SOX9 promoter activity, increase relative to control treated with a base (DMSO): 2.3 times
[1]
  size, increase relative to control treated with a base (DMSO): 2.0 times

## Ac-YVAD-CHO
SOX9 [2]
  influence in SOX9 expression: no influence
[3]
  influence in cartilaginous hyperplasia: no influence

## Nc1ncnc2c1ncn2C1CCCO1 (stereo not shown) [SQ22536, 9-(tetrahydro-2-furanyl)-adenine]
Human SOX9 promoter
  SOX9 promoter activity, decrease relative to control treated with a base (DMSO): half
[1]
  size, decrease relative to control treated with a base (DMSO): 2.1 times less
SOX9 [4]
  effect on mRNA expression of SOX9, relation to SOX9 promoter activity data: correlated
